In the supplement of paper PMC4932681:

Columns and labels:
Assay in all cases: viability inhibition at highest dose (% inhibition); higher = more growth inhibition
MCF-7 = settings: 72 h
Experimental: (§1)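 Percent inhibition of viability (CellTiter-Glo, 72 h) at the highest tested concentration (D5), normalised to DMSO (0%) and 100 µM benzethonium chloride (100%). Resistant lines and the 'in 1µM tamoxifen' arms were tested in 1 µM 4-OH-tamoxifen.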

T-47D = settings: 72 h
Experimental: as §1

BT-474 Tam1 = settings: 4-OH-tamoxifen in medium 1 µM; 72 h
Experimental: as §1

ZR-75-1 Tam2 = settings: 4-OH-tamoxifen in medium 1 µM; 72 h
Experimental: as §1

BT-474 Tam2 = settings: 4-OH-tamoxifen in medium 1 µM; 72 h
Experimental: as §1

ZR-75-1 = settings: 72 h
Experimental: as §1

T-47D Tam2 = settings: 4-OH-tamoxifen in medium 1 µM; 72 h
Experimental: as §1

T-47D Tam1 = settings: 4-OH-tamoxifen in medium 1 µM; 72 h
Experimental: as §1

ZR-75-1 Tam1 = settings: 4-OH-tamoxifen in medium 1 µM; 72 h
Experimental: as §1

MCF-7 Tam1 = settings: 4-OH-tamoxifen in medium 1 µM; 72 h
Experimental: as §1

BT-474 = settings: 72 h
Experimental: as §1

Structure (SMILES)	viability inhibition at highest dose (MCF-7; 4-OH-tamoxifen in medium 0 µM)	viability inhibition at highest dose (MCF-7; 4-OH-tamoxifen in medium 1 µM)	viability inhibition at highest dose (T-47D; 4-OH-tamoxifen in medium 0 µM)	viability inhibition at highest dose (T-47D; 4-OH-tamoxifen in medium 1 µM)	viability inhibition at highest dose (BT-474 Tam1)	viability inhibition at highest dose (ZR-75-1 Tam2)	viability inhibition at highest dose (BT-474 Tam2)	viability inhibition at highest dose (ZR-75-1; 4-OH-tamoxifen in medium 0 µM)	viability inhibition at highest dose (ZR-75-1; 4-OH-tamoxifen in medium 1 µM)	viability inhibition at highest dose (T-47D Tam2)	viability inhibition at highest dose (T-47D Tam1)	viability inhibition at highest dose (ZR-75-1 Tam1)	viability inhibition at highest dose (MCF-7 Tam1)	viability inhibition at highest dose (BT-474; 4-OH-tamoxifen in medium 0 µM)	viability inhibition at highest dose (BT-474; 4-OH-tamoxifen in medium 1 µM)
Cn1c(Nc2ccc(C(F)(F)F)cc2)nc2cc(Oc3ccnc(-c4ncc(C(F)(F)F)[nH]4)c3)ccc21 [RAF265] (drug 1000 nM)	-2.02	-1.12	12.4	-5.82	4.22	11.6	9	2.38	-4.76	2.98	22.5	-1.02	-5.31	-9.23	7.76
O=P1(NCCCl)OCCCN1CCCl (stereo not given) [Ifosfamide] (drug 10000 nM)	-17.9	17.3	-16.4	-8.32	2.59	-4.83	-0.857	-8.49	-7.06	1.35	-0.131	2.45	-4.9	-8.04	1.1
Cc1ccc(-n2nc(C(C)(C)C)cc2NC(=O)Nc2ccc(OCCN3CCOCC3)c3ccccc23)cc1 [Doramapimod (BIRB 796)] (drug 10000 nM)	17.6	19.3	6.71	-2.59	21	2.11	-5.97	-1.07	0.647	17	-1.73	1.82	9.34	3.99	15
COc1cc2nccc(Oc3ccc(NC(=O)Nc4cc(C)on4)c(Cl)c3)c2cc1OC [Tivozanib  (AV-951)] (drug 10000 nM)	24.5	23.7	22.3	19.7	71.8	11.2	43.4	13.6	4.79	22.1	23.7	3.78	13.2	31.9	75.6
CC(C)C[C@H](NC(=O)[C@@H](COC(C)(C)C)NC(=O)[C@H](Cc1ccc(O)cc1)NC(=O)[C@H](CO)NC(=O)[C@H](Cc1c[nH]c2ccccc12)NC(=O)[C@H](Cc1cnc[nH]1)NC(=O)[C@@H]1CCC(=O)N1)C(=O)N[C@@H](CCCNC(=N)N)C(=O)N1CCC[C@H]1C(=O)NNC(N)=O [Goserelin acetate] (drug 10000 nM)	-35	2.51	-9.98	-8.33	4.09	-3.44	3.49	-9.52	-3.92	13	3.41	3.63	-8.86	-9.97	-17.3
C[C@@H]1CCN(C(=O)CC#N)C[C@@H]1N(C)c1ncnc2[nH]ccc12 [Tofacitinib (Tasocitinib)] (drug 5000 nM)	-15.3	12.9	3.16	-4.5	-11.1	10.5	-10.5	-2.74	-1.91	-13.3	-1.37	4.16	1.13	0.0745	-12.8
CN[C@@H]1C[C@H]2O[C@@](C)([C@@H]1OC)n1c3ccccc3c3c4c(c5c6ccccc6n2c5c31)C(=O)N[C@H]4O [UCN-01] (drug 10000 nM)	90.3	97.1	67.6	69.8	96	73.2	96.9	61.4	61.5	70.5	78	66.1	96	74.7	90.7
COC(=O)c1ccc2c(c1)NC(=O)/C2=C(\Nc1ccc(N(C)C(=O)CN2CCN(C)CC2)cc1)c1ccccc1 [Nintedanib (BIBF 1120)] (drug 10000 nM)	12.4	3.6	-18.3	-16.7	30.7	-3.8	-5.56	-10.8	-9.4	5.71	-2.42	7.5	-3.72	5.93	24.8
COc1cc(Nc2ncc(F)c(Nc3ccc4c(n3)NC(=O)C(C)(C)O4)n2)cc(OC)c1OC [Tamatinib (R406)] (drug 10000 nM)	-1.78	4.31	-10	-10.3	-6.1	-2.25	-9.51	-7.27	-4.27	9.45	14.3	0.732	-9.69	-9.68	-22.1
Cc1cc(C(C)Nc2ccccc2)c2nc(N3CCOCC3)cc(=O)n2c1 (stereo not given) [TGX-221] (drug 10000 nM)	21.3	25.4	8.41	24.1	29	51.8	42.5	52	45.3	15.9	12.4	49	9.33	9.95	25.3
COc1cc2c(N3CCN(C(=O)Nc4ccc(OC(C)C)cc4)CC3)ncnc2cc1OCCCN1CCCCC1 [Tandutinib] (drug 1000 nM)	-5.26	-13.7	-12.3	-11.9	-0.467	-7.47	-13.2	-10	-3.58	5.77	-4.68	1.06	-14.2	-11.4	-9.77
N.N.[Cl][Pt][Cl] [Cisplatin] (drug 10000 nM)	-20.9	0.697	-16.1	-8.72	-9.25	-1.7	2.59	-8.66	-5.04	8.3	-3.02	3.43	3.44	-3.72	-4.53
Cc1[nH]c2ccccc2c1CCNCc1ccc(/C=C/C(=O)NO)cc1 [Panobinostat] (drug 1000 nM)	89.4	88.4	96.4	95.5	84.4	51.4	69.6	50.5	40.7	68.7	85.3	43.1	21.3	87.5	97.2
